Results on 8 compounds are retold here after patent US20220323594A1, “LIPIDATED CATIONIC PEPTIDE-PEG COMPOSITIONS FOR NUCLEIC ACID DELIVERY” (NUTCRACKER THERAPEUTICS, INC., priority 2019, published 2022).

As a reminder, the viability is a read-out of living cells in per cent, often relative to untreated cells.

This data set is described as follows: MTT viability assay after treatment with Fluc mRNA/amino lipidated peptoid formulations. It is filed as cell-based. Conditions: human, HeLa cells. On the procedure: Cellular viability was measured following treatment with Fluc mRNA/amino lipidated peptoid formulations by a traditional MTT viability assay. […] In this assay, cells were first treated with peptoid formulations at a final mRNA concentration of 100 ng/well for 8 hours. Cells were then left to grow for 48 hours, after which time they were exposed to 1.5 mg/mL 3-(4,5-dimethylthiazol-2-yl)-2,5-diphenyltetrazolium bromide (MTT) for 2 hours, then lysed using a solubilizing solution of 10% Triton-X 100 in acidic isopropanol (0.1N HCl). The signal corresponding to reduced formazan was normalized to untreated cells to provide a relative viability of each treated condition. […] In general, nearly all conditions maintained at least 80% viability with the only exceptions being formulations of compound 5, 34, and 35.
A general note: Formazan colour is commonly taken as a measure of viable cells.

The structures appear in SMILES notation. A value given as a limit tells only on which side of the number the result lay.

Consider `CCCCCCCCCCN(CC(N)=O)C(=O)CN(CCCCCCCCCC)C(=O)CN(CCCCCCCCCC)C(=O)CN(CCCCCCCCCC)C(=O)CN(CCc1ccccc1)C(=O)CN(CCc1ccccc1)C(=O)CN(CCN)C(=O)CN(CCc1ccccc1)C(=O)CN(CCc1ccccc1)C(=O)CN(CCN)C(=O)CN(CCc1ccccc1)C(=O)CN(CCc1ccccc1)C(=O)CNCCN` [Compound 8], for which the viability at 8 h, 500 ng/well (Relative Viability (%) 2% PEG) was 97.3% and the viability at 8 h, 500 ng/well (Relative Viability (%) No PEG) came out at 92%.

As for `CCCCCCCCCCN(CC(N)=O)C(=O)CN(CCCCCCCCCC)C(=O)CN(CCc1ccccc1)C(=O)CN(CCc1ccccc1)C(=O)CN(CCN)C(=O)CN(CCc1ccccc1)C(=O)CN(CCc1ccccc1)C(=O)CN(CCN)C(=O)CN(CCc1ccccc1)C(=O)CN(CCc1ccccc1)C(=O)CN(CCN)C(=O)CN(CCc1ccccc1)C(=O)CN(CCc1ccccc1)C(=O)CN(CCN)C(=O)CN(CCc1ccccc1)C(=O)CN(CCc1ccccc1)C(=O)CNCCN` [Compound 12], the viability at 8 h, 500 ng/well stood at 104% (Relative Viability (%) 2% PEG) and 98.5% (Relative Viability (%) No PEG).

For the compound `CCCCCCCCCCN(CC(N)=O)C(=O)CN(CCCCCCCCCC)C(=O)CN(CCCCCCCCCC)C(=O)CN(CCCCCCCCCC)C(=O)CN(CCCCCCCCCC)C(=O)CN(CCc1ccccc1)C(=O)CN(CCc1ccccc1)C(=O)CN(CCN)C(=O)CN(CCc1ccccc1)C(=O)CN(CCc1ccccc1)C(=O)CN(CCN)C(=O)CN(CCc1ccccc1)C(=O)CN(CCc1ccccc1)C(=O)CNCCN` [Compound 19], the viability at 8 h, 500 ng/well (Relative Viability (%) 2% PEG) was 94.8% and the viability at 8 h, 500 ng/well (Relative Viability (%) No PEG) turned out to be 87.1%.

With `CCCCCCCCCCN(CC(N)=O)C(=O)CN(CCCCCCCCCC)C(=O)CN(CCCCCCCCCC)C(=O)CN(CCCCCCCCCC)C(=O)CN(CCCCCCCCCC)C(=O)CN(CCc1ccccc1)C(=O)CN(CCc1ccccc1)C(=O)CN(CCN)C(=O)CN(CCc1ccccc1)C(=O)CN(CCc1ccccc1)C(=O)CN(CCN)C(=O)CN(CCc1ccccc1)C(=O)CN(CCc1ccccc1)C(=O)CN(CCN)C(=O)CN(CCc1ccccc1)C(=O)CN(CCc1ccccc1)C(=O)CNCCN` [Compound 21], the viability at 8 h, 500 ng/well came out at 109% (Relative Viability (%) 2% PEG) and 91.3% (Relative Viability (%) No PEG).

For `CCCCCCCCCCN(CC(=O)N(CC(=O)N(CCCCCCCCCC)CC(=O)N(CC(N)=O)CC(CC)CCCC)CC(CC)CCCC)C(=O)CN(CCc1ccccc1)C(=O)CN(CCc1ccccc1)C(=O)CN(CCN)C(=O)CN(CCc1ccccc1)C(=O)CN(CCc1ccccc1)C(=O)CN(CCN)C(=O)CN(CCc1ccccc1)C(=O)CN(CCc1ccccc1)C(=O)CNCCN` (stereo not drawn) [Compound 24], the viability at 8 h, 500 ng/well runs as follows: (Relative Viability (%) 2% PEG) 112%; (Relative Viability (%) No PEG) 92%.

With `CCCCCCCCCCN(CC(N)=O)C(=O)CN(CCCCCCCCCC)C(=O)CN(CCCCCCCCCC)C(=O)CN(CCCCCCCCCC)C(=O)CN(CCc1ccccc1)C(=O)CN(CCc1ccccc1)C(=O)CN(CCCN)C(=O)CN(CCc1ccccc1)C(=O)CN(CCc1ccccc1)C(=O)CN(CCCN)C(=O)CN(CCc1ccccc1)C(=O)CN(CCc1ccccc1)C(=O)CN(CCCN)C(=O)CN(CCc1ccccc1)C(=O)CN(CCc1ccccc1)C(=O)CNCCCN` [Compound 29], the viability at 8 h, 500 ng/well runs as follows: (Relative Viability (%) 2% PEG) 94%; (Relative Viability (%) No PEG) 85.9%.

With `CCCCCCCCCCN(CC(N)=O)C(=O)CN(CCCCCCCCCC)C(=O)CN(CCCCCCCCCC)C(=O)CN(CCCCCCCCCC)C(=O)CN(CCc1ccccc1)C(=O)CN(CCc1ccccc1)C(=O)CN(CC1CCCN1)C(=O)CN(CCc1ccccc1)C(=O)CN(CCc1ccccc1)C(=O)CN(CC1CCCN1)C(=O)CN(CCc1ccccc1)C(=O)CN(CCc1ccccc1)C(=O)CNCC1CCCN1` (stereo not drawn) [Compound 34], the viability at 8 h, 500 ng/well by setting is: (Relative Viability (%) 2% PEG) 106%; (Relative Viability (%) No PEG) 67.6%; (viability) < 80%.

Consider `CCCCCCCCCCN(CC(N)=O)C(=O)CN(CCCCCCCCCC)C(=O)CN(CCCCCCCCCC)C(=O)CN(CCCCCCCCCC)C(=O)CN(CCc1ccccc1)C(=O)CN(CCc1ccccc1)C(=O)CN(CC1CCCN1)C(=O)CN(CCc1ccccc1)C(=O)CN(CCc1ccccc1)C(=O)CN(CC1CCCN1)C(=O)CN(CCc1ccccc1)C(=O)CN(CCc1ccccc1)C(=O)CN(CC1CCCN1)C(=O)CN(CCc1ccccc1)C(=O)CN(CCc1ccccc1)C(=O)CNCC1CCCN1` (stereo not drawn) [Compound 35], for which the viability at 8 h, 500 ng/well by setting is: (Relative Viability (%) 2% PEG) 105%; (Relative Viability (%) No PEG) 74.8%; (viability) < 80%.
